Measurements reported in ChEMBL document CHEMBL5212743, “Selectivity Literature for EUbOPEN Chemogenomics Library wave 3” (2023).

Columns and labels:
[1] = molecular target: Tyrosine-protein kinase Fyn (Homo sapiens, UniProt P06241); test: Selectivity interaction (HotSpot assay platform (Reaction Biology)) EUB0000632a FYN; settings: at 1 µM
[2] = molecular target: Protein-tyrosine kinase 6 (Homo sapiens) (UniProt Q13882); test: Selectivity interaction (HotSpot assay platform (Reaction Biology)) EUB0000632a PTK6; settings: at 1 µM
[3] = molecular target: Vascular endothelial growth factor receptor 2 (Homo sapiens, UniProt P35968); test: Selectivity interaction (HotSpot assay platform (Reaction Biology)) EUB0000632a KDR; settings: at 1 µM
[4] = molecular target: Tyrosine-protein kinase ABL1 (Homo sapiens, UniProt P00519); test: Selectivity interaction (HotSpot assay platform (Reaction Biology)) EUB0000632a ABL1; settings: at 1 µM
[5] = molecular target: Serine/threonine-protein kinase N2 (Homo sapiens) (UniProt Q16513); settings: at 10 µM
[6] = molecular target: Serine/threonine-protein kinase pim-1 (Homo sapiens, UniProt P11309); test: Selectivity interaction (Kinase Profiler (Millipore)) EUB0000603a PIM1; settings: at 10 µM
[7] = molecular target: Ribosomal protein S6 kinase alpha-3 (Homo sapiens) (UniProt P51812); settings: at 10 µM
[8] = tested on: Platelet-derived growth factor receptor alpha (Homo sapiens), P16234 [V561D]; test: Selectivity interaction (Kinase Profiler (Millipore)) EUB0000603a PDGFRA; settings: at 10 µM
[9] = molecular target: Ribosomal protein S6 kinase alpha-6 (Homo sapiens) (UniProt Q9UK32); settings: at 10 µM
[10] = molecular target: Sodium-dependent serotonin transporter (Homo sapiens) (UniProt P31645); test: Selectivity interaction (CEREP ExpressProfile selectivity/specificity profile (human recombinant receptors)) EUB0000213bCl SLC6A4; settings: at 10 µM
[11] = molecular target: Sodium-dependent dopamine transporter (Homo sapiens, UniProt Q01959); test: Selectivity interaction (CEREP ExpressProfile selectivity/specificity profile (human recombinant receptors)) EUB0000213bCl SLC6A3; settings: at 10 µM
[12] = molecular target: 5-hydroxytryptamine receptor 1A (Homo sapiens) (UniProt P08908); test: Selectivity interaction (CEREP ExpressProfile selectivity/specificity profile (human recombinant receptors)) EUB0000213bCl HTR1A; settings: at 10 µM
[13] = molecular target: T1, Tyrosine-protein kinase JAK3 (Homo sapiens) (UniProt P52333); settings: at 500 nM
T1 sequence (whole entry): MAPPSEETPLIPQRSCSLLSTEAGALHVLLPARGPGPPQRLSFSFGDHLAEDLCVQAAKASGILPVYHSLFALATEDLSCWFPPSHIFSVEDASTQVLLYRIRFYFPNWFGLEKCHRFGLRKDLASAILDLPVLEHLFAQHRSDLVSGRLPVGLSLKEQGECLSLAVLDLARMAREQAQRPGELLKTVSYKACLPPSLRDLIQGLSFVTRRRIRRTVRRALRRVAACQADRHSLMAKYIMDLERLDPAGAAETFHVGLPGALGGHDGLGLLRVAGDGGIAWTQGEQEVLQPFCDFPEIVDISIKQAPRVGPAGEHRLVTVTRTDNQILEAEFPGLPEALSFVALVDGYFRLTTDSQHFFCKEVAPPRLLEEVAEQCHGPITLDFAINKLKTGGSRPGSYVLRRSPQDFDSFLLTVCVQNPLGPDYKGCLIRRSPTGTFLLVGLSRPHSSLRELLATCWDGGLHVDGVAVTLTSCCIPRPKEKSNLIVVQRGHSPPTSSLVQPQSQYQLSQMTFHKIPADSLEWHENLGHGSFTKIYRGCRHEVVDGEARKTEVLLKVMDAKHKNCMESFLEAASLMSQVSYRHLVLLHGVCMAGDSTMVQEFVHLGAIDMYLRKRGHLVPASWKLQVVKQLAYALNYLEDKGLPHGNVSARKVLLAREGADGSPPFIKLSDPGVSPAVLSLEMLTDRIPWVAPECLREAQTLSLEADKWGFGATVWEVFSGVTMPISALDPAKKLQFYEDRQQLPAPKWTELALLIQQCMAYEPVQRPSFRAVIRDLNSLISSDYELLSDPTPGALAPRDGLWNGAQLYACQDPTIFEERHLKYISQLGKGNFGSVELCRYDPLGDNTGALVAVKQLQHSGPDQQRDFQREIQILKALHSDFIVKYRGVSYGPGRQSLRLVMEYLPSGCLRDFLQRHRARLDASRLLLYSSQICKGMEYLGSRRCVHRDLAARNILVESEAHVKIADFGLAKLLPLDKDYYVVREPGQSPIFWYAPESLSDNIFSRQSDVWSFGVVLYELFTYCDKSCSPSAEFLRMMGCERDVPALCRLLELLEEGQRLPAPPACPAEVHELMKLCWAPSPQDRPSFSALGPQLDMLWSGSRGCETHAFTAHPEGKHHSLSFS

[14] = molecular target: SRSF protein kinase 2 (Homo sapiens) (UniProt P78362); test: Selectivity interaction (KinomeScan (DiscoverX)) EUB0000295b SRPK2; settings: at 1 µM
[15] = molecular target: T2, Muscarinic acetylcholine receptor M2 (Homo sapiens) (UniProt P08172); test: Selectivity interaction (Eurofins-Panlabs panel) EUB0000295b CHRM2; settings: at 10 µM
T2 sequence (whole entry): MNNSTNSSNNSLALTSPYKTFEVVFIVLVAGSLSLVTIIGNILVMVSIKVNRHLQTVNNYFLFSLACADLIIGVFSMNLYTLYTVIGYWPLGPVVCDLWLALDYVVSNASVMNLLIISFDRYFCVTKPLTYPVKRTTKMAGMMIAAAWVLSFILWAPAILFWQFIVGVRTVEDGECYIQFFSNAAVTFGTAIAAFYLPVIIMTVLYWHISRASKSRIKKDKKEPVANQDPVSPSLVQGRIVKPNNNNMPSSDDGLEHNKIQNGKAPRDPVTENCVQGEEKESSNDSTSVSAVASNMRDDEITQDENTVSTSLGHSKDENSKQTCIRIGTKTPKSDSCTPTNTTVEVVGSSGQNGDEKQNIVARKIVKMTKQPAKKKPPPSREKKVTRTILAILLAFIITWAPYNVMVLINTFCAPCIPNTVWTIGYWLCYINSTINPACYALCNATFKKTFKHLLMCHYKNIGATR

[16] = molecular target: T3, Phosphatidylinositol 4,5-bisphosphate 3-kinase catalytic subunit delta isoform (Homo sapiens) (UniProt O00329); test: Selectivity interaction (KinomeScan (DiscoverX)) EUB0000295b PIK3CD; settings: at 1 µM
T3 sequence (whole entry): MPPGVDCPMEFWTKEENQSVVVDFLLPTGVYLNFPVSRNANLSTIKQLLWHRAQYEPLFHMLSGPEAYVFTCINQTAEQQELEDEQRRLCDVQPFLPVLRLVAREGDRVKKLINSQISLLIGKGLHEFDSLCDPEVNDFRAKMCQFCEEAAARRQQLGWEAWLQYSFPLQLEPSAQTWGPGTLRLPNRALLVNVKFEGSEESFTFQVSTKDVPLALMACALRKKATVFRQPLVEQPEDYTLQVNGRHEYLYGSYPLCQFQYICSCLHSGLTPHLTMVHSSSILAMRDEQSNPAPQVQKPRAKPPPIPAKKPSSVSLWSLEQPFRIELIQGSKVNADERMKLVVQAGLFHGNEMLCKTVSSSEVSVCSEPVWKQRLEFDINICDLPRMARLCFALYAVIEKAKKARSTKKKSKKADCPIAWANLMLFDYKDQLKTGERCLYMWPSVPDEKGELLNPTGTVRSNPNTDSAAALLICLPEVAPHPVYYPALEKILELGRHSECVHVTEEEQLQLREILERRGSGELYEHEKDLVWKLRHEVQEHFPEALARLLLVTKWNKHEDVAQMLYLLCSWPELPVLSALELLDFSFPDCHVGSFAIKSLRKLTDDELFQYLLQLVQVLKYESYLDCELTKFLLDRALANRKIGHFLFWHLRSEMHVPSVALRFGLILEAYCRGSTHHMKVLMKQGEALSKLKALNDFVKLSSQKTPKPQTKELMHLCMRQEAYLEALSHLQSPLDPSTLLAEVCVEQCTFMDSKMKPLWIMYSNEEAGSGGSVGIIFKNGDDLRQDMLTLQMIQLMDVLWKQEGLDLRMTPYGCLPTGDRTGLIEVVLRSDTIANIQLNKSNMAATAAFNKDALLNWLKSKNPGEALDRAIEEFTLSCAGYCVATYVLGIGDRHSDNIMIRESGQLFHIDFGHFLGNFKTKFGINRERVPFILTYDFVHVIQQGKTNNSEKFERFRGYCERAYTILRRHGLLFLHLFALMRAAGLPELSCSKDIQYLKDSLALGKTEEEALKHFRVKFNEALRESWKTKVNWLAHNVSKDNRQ

Chain of Tyrosine-protein kinase ABL1 (P00519 whole entry): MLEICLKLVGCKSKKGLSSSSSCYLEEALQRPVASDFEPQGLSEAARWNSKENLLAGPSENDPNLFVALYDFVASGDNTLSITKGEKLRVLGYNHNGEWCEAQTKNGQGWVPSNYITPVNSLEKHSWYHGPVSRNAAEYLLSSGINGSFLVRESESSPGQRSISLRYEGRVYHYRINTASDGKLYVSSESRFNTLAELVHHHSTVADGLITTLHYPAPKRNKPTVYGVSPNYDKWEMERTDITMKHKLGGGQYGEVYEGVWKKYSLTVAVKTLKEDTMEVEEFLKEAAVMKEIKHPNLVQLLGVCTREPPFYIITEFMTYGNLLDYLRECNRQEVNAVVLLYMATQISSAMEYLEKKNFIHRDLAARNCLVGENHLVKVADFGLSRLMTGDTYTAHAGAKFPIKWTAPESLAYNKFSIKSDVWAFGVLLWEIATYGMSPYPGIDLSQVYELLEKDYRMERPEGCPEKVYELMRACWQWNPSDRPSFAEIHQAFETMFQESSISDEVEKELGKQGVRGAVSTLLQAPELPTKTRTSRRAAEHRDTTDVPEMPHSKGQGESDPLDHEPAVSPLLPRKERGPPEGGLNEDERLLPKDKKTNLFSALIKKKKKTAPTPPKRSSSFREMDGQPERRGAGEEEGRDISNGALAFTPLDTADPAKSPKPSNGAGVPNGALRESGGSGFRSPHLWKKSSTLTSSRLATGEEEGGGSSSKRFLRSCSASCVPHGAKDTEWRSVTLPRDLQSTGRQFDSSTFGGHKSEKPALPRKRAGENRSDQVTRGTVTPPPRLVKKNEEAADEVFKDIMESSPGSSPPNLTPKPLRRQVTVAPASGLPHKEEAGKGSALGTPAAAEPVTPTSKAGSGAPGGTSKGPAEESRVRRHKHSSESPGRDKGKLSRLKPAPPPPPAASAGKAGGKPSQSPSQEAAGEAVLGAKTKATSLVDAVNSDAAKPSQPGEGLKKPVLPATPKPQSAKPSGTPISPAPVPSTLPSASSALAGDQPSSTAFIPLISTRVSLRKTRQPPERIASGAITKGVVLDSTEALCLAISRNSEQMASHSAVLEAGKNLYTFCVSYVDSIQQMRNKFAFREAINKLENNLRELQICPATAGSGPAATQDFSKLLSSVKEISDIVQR
Chain of Serine/threonine-protein kinase pim-1 (P11309 whole entry, looked up): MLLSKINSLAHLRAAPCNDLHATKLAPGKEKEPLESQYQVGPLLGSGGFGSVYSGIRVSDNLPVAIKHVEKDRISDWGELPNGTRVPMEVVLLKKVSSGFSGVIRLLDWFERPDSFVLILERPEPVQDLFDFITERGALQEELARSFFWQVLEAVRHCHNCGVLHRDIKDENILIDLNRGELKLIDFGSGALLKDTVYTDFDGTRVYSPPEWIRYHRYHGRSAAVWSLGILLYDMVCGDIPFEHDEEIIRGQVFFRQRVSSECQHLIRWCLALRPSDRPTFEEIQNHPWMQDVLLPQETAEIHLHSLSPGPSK
Chain of Vascular endothelial growth factor receptor 2 (P35968 whole entry): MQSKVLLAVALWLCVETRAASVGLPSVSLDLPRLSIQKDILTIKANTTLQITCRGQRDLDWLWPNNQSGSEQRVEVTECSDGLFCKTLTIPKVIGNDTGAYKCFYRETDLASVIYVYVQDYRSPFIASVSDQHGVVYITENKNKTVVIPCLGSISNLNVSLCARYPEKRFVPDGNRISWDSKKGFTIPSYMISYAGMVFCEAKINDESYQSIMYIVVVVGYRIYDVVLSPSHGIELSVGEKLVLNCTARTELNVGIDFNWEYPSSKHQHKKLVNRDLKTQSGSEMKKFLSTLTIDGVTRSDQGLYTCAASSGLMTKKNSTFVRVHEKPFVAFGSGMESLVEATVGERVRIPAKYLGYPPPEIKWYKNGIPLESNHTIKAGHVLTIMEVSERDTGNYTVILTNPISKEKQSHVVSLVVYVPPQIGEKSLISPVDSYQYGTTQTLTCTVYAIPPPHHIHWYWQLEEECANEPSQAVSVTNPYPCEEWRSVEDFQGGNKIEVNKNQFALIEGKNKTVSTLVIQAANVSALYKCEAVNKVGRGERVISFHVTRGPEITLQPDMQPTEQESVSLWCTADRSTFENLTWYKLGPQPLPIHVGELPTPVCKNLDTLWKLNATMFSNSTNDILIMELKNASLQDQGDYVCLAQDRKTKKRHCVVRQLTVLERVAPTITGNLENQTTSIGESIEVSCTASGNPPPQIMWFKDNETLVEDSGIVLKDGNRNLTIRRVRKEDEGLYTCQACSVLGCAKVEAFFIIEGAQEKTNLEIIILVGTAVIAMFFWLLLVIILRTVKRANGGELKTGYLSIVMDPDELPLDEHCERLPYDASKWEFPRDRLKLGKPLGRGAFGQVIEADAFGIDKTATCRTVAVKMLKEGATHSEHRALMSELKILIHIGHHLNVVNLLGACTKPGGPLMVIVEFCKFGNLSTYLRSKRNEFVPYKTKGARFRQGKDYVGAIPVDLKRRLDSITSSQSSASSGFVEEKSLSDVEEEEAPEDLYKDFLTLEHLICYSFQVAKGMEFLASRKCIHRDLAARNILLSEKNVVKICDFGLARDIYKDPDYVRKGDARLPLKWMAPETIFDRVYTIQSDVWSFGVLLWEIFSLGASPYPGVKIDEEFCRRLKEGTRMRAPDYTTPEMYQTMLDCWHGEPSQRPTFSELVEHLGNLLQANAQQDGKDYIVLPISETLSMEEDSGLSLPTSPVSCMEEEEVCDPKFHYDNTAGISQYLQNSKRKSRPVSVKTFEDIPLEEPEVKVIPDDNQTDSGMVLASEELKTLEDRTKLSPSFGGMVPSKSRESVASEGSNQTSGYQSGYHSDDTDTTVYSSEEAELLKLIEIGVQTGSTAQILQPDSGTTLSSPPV
Chain of 5-hydroxytryptamine receptor 1A (Homo sapiens) (P08908 whole entry): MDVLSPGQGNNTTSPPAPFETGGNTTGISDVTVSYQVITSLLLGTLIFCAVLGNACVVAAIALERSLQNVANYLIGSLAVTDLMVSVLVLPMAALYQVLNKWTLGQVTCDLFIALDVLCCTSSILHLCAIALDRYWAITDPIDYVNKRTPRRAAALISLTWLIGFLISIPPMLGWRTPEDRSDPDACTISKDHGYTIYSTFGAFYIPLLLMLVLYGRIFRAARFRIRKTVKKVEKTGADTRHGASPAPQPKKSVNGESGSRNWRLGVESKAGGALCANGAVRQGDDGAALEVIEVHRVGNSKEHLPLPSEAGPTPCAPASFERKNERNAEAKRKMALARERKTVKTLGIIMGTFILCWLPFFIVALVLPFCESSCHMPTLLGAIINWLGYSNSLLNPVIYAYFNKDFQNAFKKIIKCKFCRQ
Chain of Protein-tyrosine kinase 6 (Homo sapiens) (Q13882 whole entry, looked up): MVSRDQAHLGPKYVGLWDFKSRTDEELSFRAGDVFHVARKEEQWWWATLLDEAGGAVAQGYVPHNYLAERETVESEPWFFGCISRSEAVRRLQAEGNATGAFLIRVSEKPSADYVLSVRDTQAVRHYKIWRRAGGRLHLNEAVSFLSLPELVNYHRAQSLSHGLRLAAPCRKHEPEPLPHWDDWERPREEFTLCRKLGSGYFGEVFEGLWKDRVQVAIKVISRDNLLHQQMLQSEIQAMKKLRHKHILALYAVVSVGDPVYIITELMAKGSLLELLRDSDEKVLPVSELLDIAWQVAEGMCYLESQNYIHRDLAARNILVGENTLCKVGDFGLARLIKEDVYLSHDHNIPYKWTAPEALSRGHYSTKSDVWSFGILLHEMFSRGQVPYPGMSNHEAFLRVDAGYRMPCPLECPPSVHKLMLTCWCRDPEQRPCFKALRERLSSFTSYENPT
Chain of Serine/threonine-protein kinase N2 (Homo sapiens) (Q16513 whole entry, looked up): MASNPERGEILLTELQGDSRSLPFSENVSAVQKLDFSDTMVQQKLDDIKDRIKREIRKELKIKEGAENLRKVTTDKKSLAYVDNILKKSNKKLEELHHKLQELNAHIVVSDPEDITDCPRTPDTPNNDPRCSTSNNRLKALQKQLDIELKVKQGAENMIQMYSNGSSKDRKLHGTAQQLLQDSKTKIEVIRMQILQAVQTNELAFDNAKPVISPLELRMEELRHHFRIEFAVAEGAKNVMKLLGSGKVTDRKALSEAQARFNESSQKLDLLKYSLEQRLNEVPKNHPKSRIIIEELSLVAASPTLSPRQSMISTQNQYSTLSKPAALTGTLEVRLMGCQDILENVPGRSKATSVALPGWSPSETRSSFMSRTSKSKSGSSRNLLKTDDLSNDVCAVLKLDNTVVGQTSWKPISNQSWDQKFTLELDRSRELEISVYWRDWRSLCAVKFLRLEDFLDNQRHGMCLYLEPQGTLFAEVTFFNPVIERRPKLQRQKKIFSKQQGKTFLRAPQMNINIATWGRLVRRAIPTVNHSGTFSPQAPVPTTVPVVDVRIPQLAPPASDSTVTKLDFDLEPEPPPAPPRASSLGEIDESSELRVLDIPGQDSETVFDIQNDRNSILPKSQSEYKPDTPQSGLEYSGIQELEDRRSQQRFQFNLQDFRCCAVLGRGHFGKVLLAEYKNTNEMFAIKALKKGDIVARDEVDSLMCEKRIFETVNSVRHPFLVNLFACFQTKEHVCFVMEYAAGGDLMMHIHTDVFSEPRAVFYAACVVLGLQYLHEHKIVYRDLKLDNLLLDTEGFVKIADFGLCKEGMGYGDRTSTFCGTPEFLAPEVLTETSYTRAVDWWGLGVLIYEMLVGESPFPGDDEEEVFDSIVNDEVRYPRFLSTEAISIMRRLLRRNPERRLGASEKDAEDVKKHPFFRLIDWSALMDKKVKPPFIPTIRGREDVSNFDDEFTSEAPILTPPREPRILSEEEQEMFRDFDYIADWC

SMILES: CC(C)S(=O)(=O)c1ccc2nccc(Nc3ccc4scnc4c3)c2c1
- % of inhibition [1]: 18%
- % of inhibition [2]: 13%
- % of inhibition [3]: 17%
- % of inhibition [4]: 12%

SMILES: C[C@@H](Oc1cc(-n2cnc3ccc(CN4CCN(C)CC4)cc32)sc1C(N)=O)c1ccccc1C(F)(F)F
- % of inhibition [5]: 92%
- % of inhibition [6]: 90%
- % of inhibition [7]: 92%
- % of inhibition [8]: 96%
- % of inhibition [9]: 92%

SMILES: c1ccc([C@@H]2C[C@H]2NC2CCNCC2)cc1
- % of inhibition [10]: 74%
- % of inhibition [11]: 39%
- % of inhibition [12]: 49%

SMILES: CN(C)C(=O)/C(C#N)=C/c1ccc(-c2nc3cnc4[nH]ccc4c3n2C2CCCCC2)o1
- % of inhibition [13]: 97%

SMILES: CC(=O)N1CCC(c2ccc(C(=O)NC(=N)N)cc2C(F)(F)F)CC1
- % of control [14]: 0%
- % of inhibition [15]: 67%
- % of control [16]: 34%
